The results in this text go back to patent US8530489B2 (Vertex Pharmaceuticals Incorporated, priority 2006, dated 2013).

Bounds are passed on as bounds.

PLK1, sequence (P53350 whole entry): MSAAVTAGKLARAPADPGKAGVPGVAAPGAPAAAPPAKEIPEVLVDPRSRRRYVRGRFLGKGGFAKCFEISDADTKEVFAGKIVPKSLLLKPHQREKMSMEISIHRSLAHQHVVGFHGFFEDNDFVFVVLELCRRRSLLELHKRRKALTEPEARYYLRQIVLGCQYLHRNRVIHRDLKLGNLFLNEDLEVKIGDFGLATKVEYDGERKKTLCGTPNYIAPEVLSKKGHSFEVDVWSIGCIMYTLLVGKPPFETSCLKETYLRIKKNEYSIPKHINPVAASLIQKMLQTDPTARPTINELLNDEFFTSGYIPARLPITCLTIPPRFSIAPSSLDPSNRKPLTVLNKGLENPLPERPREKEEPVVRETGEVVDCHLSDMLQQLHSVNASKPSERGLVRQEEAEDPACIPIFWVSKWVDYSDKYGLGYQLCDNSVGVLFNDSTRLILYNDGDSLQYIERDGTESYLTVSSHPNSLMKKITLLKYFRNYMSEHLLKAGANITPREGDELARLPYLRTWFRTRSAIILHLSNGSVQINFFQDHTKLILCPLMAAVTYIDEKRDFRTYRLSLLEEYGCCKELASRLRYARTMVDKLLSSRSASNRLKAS

The assay addresses PLK1 (Homo sapiens, UniProt P53350). Nature of the assay: PLK1 Inhibition Assay I (radioactive-phosphate incorporation). Type of assay: biochemical. Conditions: Ki(app); PLK1 Inhibition Assay I or II (table does not say which). Summed up:
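Ki(app) values came from non-linear regression of initial rates after background subtraction, with phosphopeptide measured by phosphocellulose filter binding and scintillation counting. PLK1 at 2 nM was preincubated with compound (typically from 10 μM, 2-fold dilutions) for 10 min, then run 240 min at 25° C with 350 μM [γ-33P]ATP and 450 μM peptide substrate in HEPES pH 7.5 buffer.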
In the case of `N#Cc1cnc(NCc2ccc(Oc3ccccc3)cc2)nc1-c1c[nH]c2ncc(C(F)(F)F)cc12` [Compound I-46, 2-(4-phenoxybenzylamino)-4-(5-(trifluoromethyl)-1H-pyrrolo[2,3-b]pyridin-3-yl)pyrimidine-5-carbonitrile], the Ki is > 40 nM.
The figure for `C[C@@H](Nc1ncc(C#N)c(-c2c[nH]c3ncc(C(F)(F)F)cc23)n1)c1ccc(N(C)CCN(C)C)nc1` [Compound I-282, 2-((R)-1-(6-((2-(dimethylamino)ethyl)(methyl)amino)pyridin-3-yl)ethylamino)-4-(5-(trifluoromethyl)-1H-pyrrolo[2,3-b]pyridin-3-yl)pyrimidine-5-carbonitrile] is < 3 nM.
With `N#Cc1cnc(Sc2ccccc2Cl)nc1-c1c[nH]c2ncc(C(F)(F)F)cc12` [II-5, 2-(2-chlorophenylthio)-4-(5-(trifluoromethyl)-1H-pyrrolo[2,3-b]pyridin-3-yl)pyrimidine-5-carbonitrile], the Ki is > 40 nM.
The figure for `N#Cc1cnc(NCCC2CCCN2)nc1-c1c[nH]c2ncc(C(F)(F)F)cc12` (centres unmarked) [Compound I-85, 2-(2-(pyrrolidin-2-yl)ethylamino)-4-(5-(trifluoromethyl)-1H-pyrrolo[2,3-b]pyridin-3-yl)pyrimidine-5-carbonitrile] is > 40 nM.
Turning to `N#Cc1cnc(NCc2ccc(Cl)nc2)nc1-c1c[nH]c2ncc(C(F)(F)F)cc12` [Compound I-50, 2-((6-chloropyridin-3-yl)methylamino)-4-(5-(trifluoromethyl)-1H-pyrrolo[2,3-b]pyridin-3-yl)pyrimidine-5-carbonitrile], the Ki is > 40 nM.
As for `CC(C)N1CCN(c2ccc([C@@H](C)Nc3ncc(C#N)c(-c4c[nH]c5ncc(C(F)(F)F)cc45)n3)cn2)CC1` [Compound I-284, 2-((R)-1-(6-(4-isopropylpiperazin-1-yl)pyridin-3-yl)ethylamino)-4-(5-(trifluoromethyl)-1H-pyrrolo[2,3-b]pyridin-3-yl)pyrimidine-5-carbonitrile], the Ki is < 3 nM.
The figure for `CSc1ncc(C#N)c(-c2c[nH]c3ncc(C(F)(F)F)cc23)n1` [II-1, 2-(methylthio)-4-(5-(trifluoromethyl)-1H-pyrrolo[2,3-b]pyridin-3-yl)pyrimidine-5-carbonitrile] is > 40 nM.
With `N#Cc1cnc(NC2CCOCC2)nc1-c1c[nH]c2ncc(C(F)(F)F)cc12` [Compound I-74, 2-(tetrahydro-2H-pyran-4-ylamino)-4-(5-(trifluoromethyl)-1H-pyrrolo[2,3-b]pyridin-3-yl)pyrimidine-5-carbonitrile] the figure was 3 to 40 nM; with `N#Cc1cnc(Nc2ccccc2)nc1-c1c[nH]c2ncc(C(F)(F)F)cc12` [Compound I-25, 2-(phenylamino)-4-(5-(trifluoromethyl)-1H-pyrrolo[2,3-b]pyridin-3-yl)pyrimidine-5-carbonitrile], 3 to 40 nM.
With `C[C@@H](Nc1ncc(C#N)c(-c2c[nH]c3ncc(C(F)(F)F)cc23)n1)C1CCN(C(=O)C(O)CO)CC1` (stereo partly drawn) [Compound I-257, 2-((1R)-1-(1-(2,3-dihydroxypropanoyl)piperidin-4-yl)ethylamino)-4-(5-(trifluoromethyl)-1H-pyrrolo[2,3-b]pyridin-3-yl)pyrimidine-5-carbonitrile] the figure was < 3 nM.
With `N#Cc1cnc(SCCc2ccccc2)nc1-c1c[nH]c2ncc(C(F)(F)F)cc12` [II-10, 2-(phenethylthio)-4-(5-(trifluoromethyl)-1H-pyrrolo[2,3-b]pyridin-3-yl)pyrimidine-5-carbonitrile], the Ki is > 40 nM.
`N#Cc1cnc(Sc2ccccc2)nc1-c1c[nH]c2ncc(C(F)(F)F)cc12` [II-0, 2-(phenylthio)-4-(5-(trifluoromethyl)-1H-pyrrolo[2,3-b]pyridin-3-yl)pyrimidine-5-carbonitrile]: the Ki was in the range of 3 to 40 nM.
For `C[C@@H](Nc1ncc(C#N)c(-c2c[nH]c3ncc(C(F)(F)F)cc23)n1)c1ccc(O[C@H]2CCN(C)C2)cc1` [Compound I-146, 2-((R)-1-(4-((S)-1-methylpyrrolidin-3-yloxy)phenyl)ethylamino)-4-(5-(trifluoromethyl)-1H-pyrrolo[2,3-b]pyridin-3-yl)pyrimidine-5-carbonitrile], the Ki was < 3 nM.
With `C[C@@H](Nc1ncc(C#N)c(-c2c[nH]c3ncc(C(F)(F)F)cc23)n1)c1ccc(N2CC[C@H](N(C)C)C2)nc1` [Compound I-290, 2-((R)-1-(6-((S)-3-(dimethylamino)pyrrolidin-1-yl)pyridin-3-yl)ethylamino)-4-(5-(trifluoromethyl)-1H-pyrrolo[2,3-b]pyridin-3-yl)pyrimidine-5-carbonitrile] the figure was 3 to 40 nM; with `N#Cc1cnc(NC[C@H]2CC[C@@H](O)C2)nc1-c1c[nH]c2ncc(C(F)(F)F)cc12` [Compound I-81, 2-(((1S,3R)-3-hydroxycyclopentyl)methylamino)-4-(5-(trifluoromethyl)-1H-pyrrolo[2,3-b]pyridin-3-yl)pyrimidine-5-carbonitrile], 3 to 40 nM.
The figure for `CC(Nc1ncc(C#N)c(-c2c[nH]c3ncc(C(F)(F)F)cc23)n1)c1ccc(O[C@@H]2CCN(C)C2)nc1` (stereo partly drawn) [Compound I-271, 2-(1-(6-((R)-1-methylpyrrolidin-3-yloxy)pyridin-3-yl)ethylamino)-4-(5-(trifluoromethyl)-1H-pyrrolo[2,3-b]pyridin-3-yl)pyrimidine-5-carbonitrile] is 3 to 40 nM.
The figure for `C[C@@H](Nc1ncc(C#N)c(-c2c[nH]c3ncc(C(F)(F)F)cc23)n1)[C@H]1CC[C@H](N2CCN(C)CC2)CC1` [Compound I-261, 2-((R)-1-((1r,4R)-4-(4-methylpiperazin-1-yl)cyclohexyl)ethylamino)-4-(5-(trifluoromethyl)-1H-pyrrolo[2,3-b]pyridin-3-yl)pyrimidine-5-carbonitrile] is < 3 nM; for `N#Cc1cnc(NCc2cc(F)cc(F)c2)nc1-c1c[nH]c2ncc(C(F)(F)F)cc12` [Compound I-48, 2-(3,5-difluorobenzylamino)-4-(5-(trifluoromethyl)-1H-pyrrolo[2,3-b]pyridin-3-yl)pyrimidine-5-carbonitrile] it is > 40 nM; for `CCC(O)CNc1ncc(C#N)c(-c2c[nH]c3ncc(C(F)(F)F)cc23)n1` (centres unmarked) [Compound I-96, 2-(2-hydroxybutylamino)-4-(5-(trifluoromethyl)-1H-pyrrolo[2,3-b]pyridin-3-yl)pyrimidine-5-carbonitrile] it is 3 to 40 nM.
For the compound `N#Cc1cnc(NCc2ccc(-n3cncn3)cc2)nc1-c1c[nH]c2ncc(C(F)(F)F)cc12` [Compound I-55, 2-(4-(1H-1,2,4-triazol-1-yl)benzylamino)-4-(5-(trifluoromethyl)-1H-pyrrolo[2,3-b]pyridin-3-yl)pyrimidine-5-carbonitrile], the Ki was 3 to 40 nM.
With `CC(Nc1ncc(C#N)c(-c2c[nH]c3ncc(C(F)(F)F)cc23)n1)c1ccc(N2CCC(F)CC2)nc1` (centres unmarked) [Compound I-199, 2-(1-(6-(4-fluoropiperidin-1-yl)pyridin-3-yl)ethylamino)-4-(5-(trifluoromethyl)-1H-pyrrolo[2,3-b]pyridin-3-yl)pyrimidine-5-carbonitrile] the figure was 3 to 40 nM; with `CC(=O)N1CCC([C@H](C)Nc2ncc(C#N)c(-c3c[nH]c4ncc(C(F)(F)F)cc34)n2)CC1` [Compound I-135, 2-((S)-1-(1-acetylpiperidin-4-yl)ethylamino)-4-(5-(trifluoromethyl)-1H-pyrrolo[2,3-b]pyridin-3-yl)pyrimidine-5-carbonitrile], 3 to 40 nM; with `CC[C@H](O)C(=O)N1CCC([C@@H](C)Nc2ncc(C#N)c(-c3c[nH]c4ncc(C(F)(F)F)cc34)n2)CC1` [Compound I-217, 2-((R)-1-(1-((S)-2-hydroxybutanoyl)piperidin-4-yl)ethylamino)-4-(5-(trifluoromethyl)-1H-pyrrolo[2,3-b]pyridin-3-yl)pyrimidine-5-carbonitrile], < 3 nM.
The figure for `C[C@@H](Nc1ncc(C#N)c(-c2c[nH]c3ncc(C(F)(F)F)cc23)n1)C1CCN(C(=O)[C@H](N)CCCN)CC1` [Compound I-252, 2-((R)-1-(1-((R)-2,5-diaminopentanoyl)piperidin-4-yl)ethylamino)-4-(5-(trifluoromethyl)-1H-pyrrolo[2,3-b]pyridin-3-yl)pyrimidine-5-carbonitrile] is 3 to 40 nM; for `CC(Nc1ncc(C#N)c(-c2c[nH]c3ncc(C(F)(F)F)cc23)n1)c1ccc(N2CCOCC2)cc1` (centres unmarked) [Compound I-125, 2-(1-(4-morpholinophenyl)ethylamino)-4-(5-(trifluoromethyl)-1H-pyrrolo[2,3-b]pyridin-3-yl)pyrimidine-5-carbonitrile] it is < 3 nM; for `C[C@@H](Nc1ncc(C#N)c(-c2c[nH]c3ncc(C(F)(F)F)cc23)n1)c1ccc(C(=O)O)cc1` [Compound I-186, 4-((1R)-1-(5-cyano-4-(5-(trifluoromethyl)-1H-pyrrolo[2,3-b]pyridin-3-yl)pyrimidin-2-ylamino)ethyl)benzoic acid] it is < 3 nM.
For `C[C@@H](Nc1ncc(C#N)c(-c2c[nH]c3ncc(C(F)(F)F)cc23)n1)C1CCN(C(=O)[C@@H](N)CC#N)CC1` [Compound I-255, 2-((R)-1-(1-((S)-2-amino-3-cyanopropanoyl)piperidin-4-yl)ethylamino)-4-(5-(trifluoromethyl)-1H-pyrrolo[2,3-b]pyridin-3-yl)pyrimidine-5-carbonitrile], the Ki is < 3 nM.
In the case of `C[C@H](N)CC(=O)N1CCC([C@@H](C)Nc2ncc(C#N)c(-c3c[nH]c4ncc(C(F)(F)F)cc34)n2)CC1` [Compound I-244, 2-((R)-1-(1-((S)-3-aminobutanoyl)piperidin-4-yl)ethylamino)-4-(5-(trifluoromethyl)-1H-pyrrolo[2,3-b]pyridin-3-yl)pyrimidine-5-carbonitrile], the Ki was < 3 nM.
With `C[C@@H](Nc1ncc(C#N)c(-c2c[nH]c3ncc(C(F)(F)F)cc23)n1)c1ccc2ccccc2c1` [Compound I-31, 2-((R)-1-(naphthalen-2-yl)ethylamino)-4-(5-(trifluoromethyl)-1H-pyrrolo[2,3-b]pyridin-3-yl)pyrimidine-5-carbonitrile] the figure was 3 to 40 nM.
